The text below walks through data of patent US20260345791A1, “EIF4A INHIBITORS AND USES THEREOF” (The Regents of the University of California, priority 2022, published 2026).

Data set [1] has as its system K562 CRISPRi or CRISPRa cells; IFITM1, IFITM2, IFITM3. As to the kind of experiment: Viability of K562 CRISPRi/CRISPRa cells with modulated IFITM expression (chemical-genetic interaction, IC50 shift). Type of data set: cell-based. Particulars: for IFITM assistance versus linker length: linker series: BisRoc-1 (PEG11), BisRoc-2 (PEG4), BisRoc-3 (PEG2), rocaglamide (no linker), FIG. 2B. An excerpt: FIGS. 1A-1E. Longer linker length correlates with greater IFITM assistance in a series of linked rocaglamide analogs. FIG. 1A: Crystal structure of rocaglamide bound to eIF4A1 and polypurine RNA showing adjacent symmetry mates (PDB, 5ZC9). The distance between RocA molecules bound to adjacent eIF4A1 proteins is approximately 14 Å and the solvent exposed amide on RocA offers a handle for chemical modification. FIG. 1B: Chemical structures of select eIF4A1 inhibitors. FIGS. 1C-1D: Viability of K562 CRISPRi (FIG. 1C) or CRISPRa (FIG. 1D) cells expressing sgRNAs treated with BisRoc-1 or rocaglamide. Data represent means of three biological replicates; error bars denote SD. FIG. 1E: Chemical structures of a BisRoc linker length series (see also FIG. 2B).
FIGS. 2A-2C. IFITM proteins assist the cellular activity of diverse linked chemotypes. FIG. 2A: Heavy atom skeletons of compounds assessed for IFITM assistance (see also FIG. 3 for chemical structures). Compounds were categorized as non-linked chemotypes (compounds 3, 6, and 8; black), linked chemotypes with short linkers (compounds 10 and 13; light gray), or linked chemotypes with long linkers (compounds 15 and 17; medium gray). FIG. 2B: Chemical-genetic interaction map of inhibitors in FIG. 2A with IFITM1, IFTM2, and IFITM3. Potency, as measured by dose-response IC50 in a cell viability assay (see also FIG. 1D for example source data), was normalized to that of non-sgRNA-expressing K562 CRISPRi or CRISPRa cells. Physicochemical properties, including molecular weight (MW) and number of rotatable bonds, with their respective traditional thresholds for drug-likeness are indicated (right). Data represent means of three biological replicates. FIG. 2C: Map of chemical space populated by 301 kinase inhibitors in clinical development (black), 2258 PROTACs reported in the literature (light gray), and 2 linked chemotypes described herein (medium gray). Boundaries represent traditional guidelines for drug-likeness.
Given the ubiquitous presence of IFITM proteins in cells, we hypothesized that the cellular uptake of other linked inhibitors in the literature could also be assisted by IFITM proteins. While not generally as large as the linked chemotypes described above, PROTACs are likewise composed of two chemical entities covalently attached by a flexible tether (15). […] Thus, we included several PROTACs and their non-linked parent inhibitors in an expanded survey of chemical-genetic interactions with IFITM proteins (FIG. 2A, FIGS. 3A-3B, and FIG. 4). We treated our K562 CRISPRi and CRISPRa cells with these inhibitors and evaluated differences in potency resulting from IFITM protein expression modulation, as measured by half-maximal inhibitory concentration (IC50) shift in a cell viability assay. […] The inverse finding, resistance to linked chemotypes, resulted from gene knockdown (FIG. 2B). Included among these compounds were a systematic linker series of BisRoc-1 analogs (FIG. 1E). […] The same trend was corroborated by the diverse ensemble of all molecules tested (FIG. 2B): the magnitudes of chemical-genetic interactions correlated with inhibitor size (molecular weight) and flexibility (number of rotatable bonds). […] Despite their cellular activities, the physicochemical properties of these linked chemotypes largely violate Lipinski's (1) and Veber's (2) classic guidelines (FIG. 2B and FIG. 4), raising the need for a revised drug design framework that considers IFITM-assisted uptake and other cellular import processes. […]

Data set [2] concerns interferon-induced transmembrane (IFITM) proteins. As to the kind of experiment: Genome-scale chemical-genetic identification of uptake pathway. The format is cell-based. Particulars: genome-scale chemical-genetic approaches. An excerpt:
We devised additional linked inhibitors targeting EIF4A1 (BisRoc-1, molecular weight: 1466 g/mol) whose uptake we predicted would be assisted by IFITM proteins. This uptake pathway should provide a general mechanism by which large, flexibly linked chimeric molecules can gain assisted access to the cytosol, including compounds with mechanisms of action not easily accessible to traditional drug-like molecules.

Another data set has as its system MTOR. Conditions: cited from earlier work.
The conditions of data set [3]: in vivo; cited from earlier work.
Another data set has as its system KBM7 cells; IFITM2. Particulars: IFITM2 knockout, not validated; cited from earlier work.

Regarding `COc1ccc([C@@]23Oc4cc(OC)cc(OC)c4[C@]2(O)[C@H](O)[C@H](C(=O)NCCOCCOCCOCCOCCOCCOCCOCCOCCOCCOCCOCCNC(=O)[C@H]2[C@@H](O)[C@@]4(O)c5c(OC)cc(OC)cc5O[C@@]4(c4ccc(OC)cc4)[C@@H]2c2ccccc2)[C@H]3c2ccccc2)cc1` [BisRoc-1], the “overall modulation in the cellular activity accounted for by IFITM proteins” value in data set [1] (K562 CRISPRi/a cells, FIG. 1C-1D) worked out at 6.2 fold. In addition, the “IFITM assistance versus linker length” value in data set [1] is “longer linker lengths correlated with greater IFITM assistance”.
Regarding `COc1ccc([C@@]23Oc4cc(OC)cc(OC)c4[C@]2(O)[C@H](O)[C@H](C(=O)N(C)C)[C@H]3c2ccccc2)cc1` [rocaglamide], the “IFITM assistance versus linker length” value in data set [1] is “longer linker lengths correlated with greater IFITM assistance”.
As to `CO[C@H]1C[C@@H]2CC[C@@H](C)[C@@](O)(O2)C(=O)C(=O)N2CCCC[C@H]2C(=O)O[C@H]([C@H](C)C[C@@H]2CC[C@@H](OCCOCc3cn(CCOCCOCCOCCOCCOCCOCCOCCOCCC(=O)NCCCCn4nc(-c5ccc6oc(N)nc6c5)c5c(N)ncnc54)nn3)[C@H](OC)C2)CC(=O)[C@H](C)/C=C(\C)[C@@H](O)[C@@H](OC)C(=O)[C@H](C)C[C@H](C)C=CC=CC=C1C` [RapaLink-1], the “modulation of cell permeability by IFITM pathway” value in data set [2] is listed as “modulates the cell permeability”. Also, in the data set with MTOR, the activity in vivo entry is recorded as “highly active in vivo”. In addition, in data set [3], the blood-brain barrier penetration result is reported as “penetrates the blood-brain barrier”.
For `COc1ccc([C@@]23Oc4cc(OC)cc(OC)c4[C@]2(O)[C@H](O)[C@H](C(=O)NCCOCCOCCOCCOCCNC(=O)[C@H]2[C@@H](O)[C@@]4(O)c5c(OC)cc(OC)cc5O[C@@]4(c4ccc(OC)cc4)[C@@H]2c2ccccc2)[C@H]3c2ccccc2)cc1` [BisRoc-2], the “IFITM assistance versus linker length” value in data set [1] was “longer linker lengths correlated with greater IFITM assistance”.
In the case of `COc1ccc([C@@]23Oc4cc(OC)cc(OC)c4[C@]2(O)[C@H](O)[C@H](C(=O)NCCOCCOCCNC(=O)[C@H]2[C@@H](O)[C@@]4(O)c5c(OC)cc(OC)cc5O[C@@]4(c4ccc(OC)cc4)[C@@H]2c2ccccc2)[C@H]3c2ccccc2)cc1` [BisRoc-3], in data set [1], the “IFITM assistance versus linker length” value is “longer linker lengths correlated with greater IFITM assistance”.
Take `Cc1sc2c(c1C)C(c1ccc(Cl)cc1)=N[C@@H](CC(=O)NCCCCCCCCNC(=O)COc1cccc3c1C(=O)N(C1CCC(=O)NC1=O)C3=O)c1nnc(C)n1-2` (stereo partly drawn) [dBET6]: the IFITM2 chemical-genetic interaction entry in the data set with KBM7 cells; IFITM2 was “statistically significant resistance chemical-genetic interaction”.
